The values below come from US20260284018A1, “DUAL INHIBITORS OF DYRK1A AND 5-HT2 FOR TREATING A BRAIN DISORDER” (THE REGENTS OF THE UNIVERSITY OF CALIFORNIA, priority 2023, published 2026).

Data set [1] has as its target T1, human recombinant 5-HT2AR (Homo sapiens, UniProt P28223).
T1 construct: host or cells: CHO-K1
Put plainly: IPOne HTRF assay, 5-HT2AR. Type of data set: cell-based. The conditions noted are these: for antagonist activity at 5-HT2A, IP-One: antagonist mode. As to the method:
(§1) IPOne Assays. The 5-HT2AR and 5-HT2CR IPOne HTRF assays were performed at Epics Therapeutics S.A. (Belgium, FAST-0505I) using conventional methods. Briefly, CHO-K1 cells expressing human recombinant 5-HT2AR or 5-HT2CR grown to mid-log phase in culture media without antibiotics were detached with PBS-EDTA, centrifuged, and resuspended in medium without antibiotics buffer. Then, 20,000 cells were distributed in a 96-well plate and incubated overnight at 37° C. with 5% CO2. For agonist testing, the medium was removed and 20 μL of assay buffer plus 20 μL of test compound or reference agonist (α-Me-5-HT) was added to each well. The plate was incubated for 60 min at 37° C. with 5% CO2. For antagonist testing, the medium was removed and 20 μL of assay buffer plus 20 μL of test compound or reference antagonist (ketanserin) was added to each well. The plate was incubated for 60 min at 37° C. with 5% CO2. After addition of the lysis buffer containing IP1-d2 and anti-IP1 cryptate detection reagents, plates were incubated for 1 h at room temperature and fluorescence ratios were measured according to the manufacturer's specifications using the HTRF kit.
(TR-FRET usually uses a lanthanide donor and a delayed reading to cut background.)

A further data set relates to C57BL/6J mice. Put plainly: Head-twitch response. The conditions noted are these: for head-twitch response: intraperitoneal, up to 30 mg/kg. The data set is classed as in vivo. Here is the method:
Animals. Female C57BL/6J mice used in the head twitch response and locomotion assays, and Sprague Dawley dams used to generate embryonic cultures were obtained from Jackson Laboratory (Sacramento, CA). Mice were housed in a temperature- and humidity-controlled room maintained on a 12 h light/dark cycle in groups of four to five (same sex). Animals weighed between 17 and 30 g at the time of the experiments. All experimental procedures involving rodents were approved by the UC Davis Institutional Animal Care and Use Committee (IACUC) and adhered to principles described in the National Institutes of Health Guide for the Care and Use of Laboratory Animals. The University of California, Davis is accredited by the Association for Assessment and Accreditation of Laboratory Animal Care International (AAALAC).
Head-Twitch Response and Locomotion. Mice (9-10 weeks old) were injected intraperitoneally with compounds dissolved in 10% Kolliphor® EL (Sigma) and 10% DMSO in 0.9% saline (injection volume 5 mL/kg) or vehicle, placed in an empty cage, and filmed for 10 min. Locomotion was quantified using ANYmaze Video Tracking System, version 7.07 (Stoelting Co.). After 10 min, mice were then injected with 5-MeO-DMT dissolved in 0.9% saline (10 mg/kg, injection volume 5 mL/kg) or vehicle and filmed for 20 min. Cages were cleaned with 70% ethanol between experiments. […] The last 20 min of each video were scored by one trained observer blinded to the treatment conditions.

Data set [2] addresses T2, human recombinant 5-HT2CR (Homo sapiens, UniProt P28335).
T2 construct: host or cells: CHO-K1
T2 sequence (P28335 33-458): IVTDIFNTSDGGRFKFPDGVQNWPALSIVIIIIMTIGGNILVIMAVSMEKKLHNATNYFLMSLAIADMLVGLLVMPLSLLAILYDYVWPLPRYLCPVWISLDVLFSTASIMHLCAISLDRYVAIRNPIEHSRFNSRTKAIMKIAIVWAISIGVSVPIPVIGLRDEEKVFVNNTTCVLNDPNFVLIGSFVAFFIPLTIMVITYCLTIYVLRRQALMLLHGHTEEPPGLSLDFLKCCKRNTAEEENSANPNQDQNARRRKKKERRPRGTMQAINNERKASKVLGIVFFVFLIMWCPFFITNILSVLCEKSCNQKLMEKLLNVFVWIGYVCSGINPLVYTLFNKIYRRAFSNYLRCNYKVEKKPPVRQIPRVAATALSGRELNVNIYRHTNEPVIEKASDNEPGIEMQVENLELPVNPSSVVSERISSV
Put plainly: IPOne HTRF assay, 5-HT2CR. Type of data set: cell-based. The conditions noted are these: for antagonist activity at 5-HT2C, IP-One / selectivity of antagonism, 5-HT2C versus 5-HT2A, IP-One: antagonist mode. Here is the method: as §1

Data set [3] concerns embryonic rat cortical cultures. Put plainly: Total neurite length in embryonic rat cortical cultures. Type of data set: cell-based. Particulars: embryonic rat cortical cultures (DIV=0), treated for 72 h. As to the method: Each data point represents a well average from two independent cultures. Data are represented as mean f SEM. *p<0.05, **p<0.01, ***p<0.001, ****p<0.0001, as compared to the vehicle control following a one-way ANOVA with Dunnett's post hoc test. VEH=vehicle; DON=250 nM donepezil; OKA=30 nM okadaic acid.

Another data set concerns the target T3, DCAMKL1 (Homo sapiens, UniProt O15075).
T3 construct: purchased Eurofins DiscoverX
The conditions noted are these: 10 μM; cited from earlier work.

Another data set addresses T4, CDK9 (Homo sapiens, UniProt P50750).
T4 construct: purchased Eurofins DiscoverX
The conditions noted are these: 10 μM; cited from earlier work.

In a further data set the target is T5, BRAF(V600E) (Homo sapiens, UniProt P15056, V600E).
T5 construct: purchased Eurofins DiscoverX
T5 sequence (P15056 whole entry V600E): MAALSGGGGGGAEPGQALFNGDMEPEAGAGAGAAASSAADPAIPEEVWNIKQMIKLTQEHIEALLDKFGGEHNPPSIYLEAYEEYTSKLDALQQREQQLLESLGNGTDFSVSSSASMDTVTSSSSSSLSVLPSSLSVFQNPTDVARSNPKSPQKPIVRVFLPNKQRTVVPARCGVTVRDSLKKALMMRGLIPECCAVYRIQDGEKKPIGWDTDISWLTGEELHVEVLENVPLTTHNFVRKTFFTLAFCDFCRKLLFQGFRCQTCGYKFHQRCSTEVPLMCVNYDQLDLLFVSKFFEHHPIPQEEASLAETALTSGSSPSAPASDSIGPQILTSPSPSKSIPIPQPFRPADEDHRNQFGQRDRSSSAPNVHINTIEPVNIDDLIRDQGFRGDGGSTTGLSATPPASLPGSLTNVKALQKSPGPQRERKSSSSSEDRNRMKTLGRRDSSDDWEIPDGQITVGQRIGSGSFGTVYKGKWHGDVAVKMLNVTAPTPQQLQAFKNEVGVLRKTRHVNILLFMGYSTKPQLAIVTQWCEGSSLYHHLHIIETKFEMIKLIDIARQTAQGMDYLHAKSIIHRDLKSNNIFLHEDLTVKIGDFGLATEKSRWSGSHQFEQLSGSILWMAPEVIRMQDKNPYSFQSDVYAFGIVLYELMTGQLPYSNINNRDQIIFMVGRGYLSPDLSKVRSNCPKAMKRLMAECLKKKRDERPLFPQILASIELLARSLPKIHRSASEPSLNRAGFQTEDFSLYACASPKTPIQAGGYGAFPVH
Particulars: 10 μM; cited from earlier work.

The target in the next data set is T6, AKT1 (Homo sapiens, UniProt P31749).
T6 construct: purchased Eurofins DiscoverX
Particulars: 10 μM; cited from earlier work.

The target of another data set is T7, VEGFR2 (Homo sapiens, UniProt P35968).
T7 construct: purchased Eurofins DiscoverX KINOMEscan scanEDGE
The conditions noted are these: 10 μM; cited from earlier work.

Another data set deals with T8, LKB1 (Homo sapiens, UniProt Q15831).
T8 construct: purchased Eurofins DiscoverX (KINOMEscan scanEDGE service)
T8 sequence (Q15831 whole entry): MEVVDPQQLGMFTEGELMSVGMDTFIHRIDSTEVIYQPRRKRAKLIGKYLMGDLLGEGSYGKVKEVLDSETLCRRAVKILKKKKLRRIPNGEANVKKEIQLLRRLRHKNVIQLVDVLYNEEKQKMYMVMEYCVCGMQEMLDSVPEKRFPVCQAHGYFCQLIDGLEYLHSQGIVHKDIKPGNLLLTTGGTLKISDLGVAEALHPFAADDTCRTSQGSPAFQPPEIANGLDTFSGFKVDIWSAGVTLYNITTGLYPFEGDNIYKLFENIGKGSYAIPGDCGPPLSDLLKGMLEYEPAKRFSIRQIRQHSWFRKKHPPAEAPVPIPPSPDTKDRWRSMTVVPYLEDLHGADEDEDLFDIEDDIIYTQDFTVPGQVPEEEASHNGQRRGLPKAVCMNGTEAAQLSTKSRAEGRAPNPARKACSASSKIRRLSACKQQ
Particulars: 10 μM; cited from earlier work.

In another data set the target is T9, MAP3K4 (Homo sapiens, UniProt Q9Y6R4).
T9 construct: purchased Eurofins DiscoverX (KINOMEscan scanEDGE service)
Particulars: 10 μM; cited from earlier work.

For a further data set, the target named is T10, MKNK1 (Homo sapiens, UniProt Q9BUB5).
T10 construct: purchased Eurofins DiscoverX (KINOMEscan scanEDGE service)
T10 sequence (Q9BUB5 whole entry): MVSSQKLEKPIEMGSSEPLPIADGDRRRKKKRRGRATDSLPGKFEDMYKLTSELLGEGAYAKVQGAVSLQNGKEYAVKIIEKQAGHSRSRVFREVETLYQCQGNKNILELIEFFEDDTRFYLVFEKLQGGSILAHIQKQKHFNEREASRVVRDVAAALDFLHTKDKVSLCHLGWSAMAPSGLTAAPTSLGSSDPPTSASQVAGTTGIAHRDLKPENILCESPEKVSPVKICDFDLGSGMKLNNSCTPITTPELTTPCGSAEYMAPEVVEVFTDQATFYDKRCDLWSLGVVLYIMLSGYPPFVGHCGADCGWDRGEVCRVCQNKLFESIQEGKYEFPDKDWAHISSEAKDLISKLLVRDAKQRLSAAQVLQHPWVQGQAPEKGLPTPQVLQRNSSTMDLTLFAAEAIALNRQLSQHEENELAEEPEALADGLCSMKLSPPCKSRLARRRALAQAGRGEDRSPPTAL
Particulars: 10 μM; cited from earlier work.

For a further data set, the target named is T11, SNARK (Homo sapiens, UniProt Q9H093).
T11 construct: purchased Eurofins DiscoverX KINOMEscan scanEDGE
T11 sequence (Q9H093 whole entry): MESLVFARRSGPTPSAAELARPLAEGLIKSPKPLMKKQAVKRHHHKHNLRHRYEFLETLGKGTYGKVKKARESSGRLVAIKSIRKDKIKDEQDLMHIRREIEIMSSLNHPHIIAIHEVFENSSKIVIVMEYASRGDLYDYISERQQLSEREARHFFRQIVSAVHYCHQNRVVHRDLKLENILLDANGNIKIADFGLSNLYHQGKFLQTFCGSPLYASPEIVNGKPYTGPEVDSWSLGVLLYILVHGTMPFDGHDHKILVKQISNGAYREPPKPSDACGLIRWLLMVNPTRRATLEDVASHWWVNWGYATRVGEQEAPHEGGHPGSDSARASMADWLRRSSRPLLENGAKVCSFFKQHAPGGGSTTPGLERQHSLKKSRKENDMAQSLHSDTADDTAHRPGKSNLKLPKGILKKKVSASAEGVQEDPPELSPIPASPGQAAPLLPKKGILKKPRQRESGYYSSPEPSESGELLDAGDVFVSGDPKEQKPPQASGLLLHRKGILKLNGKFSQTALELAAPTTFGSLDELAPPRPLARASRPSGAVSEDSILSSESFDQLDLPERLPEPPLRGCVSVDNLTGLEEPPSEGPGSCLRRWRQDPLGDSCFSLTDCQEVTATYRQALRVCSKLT
The conditions noted are these: 10 μM; cited from earlier work.

The target in another data set is T12, CDK11 (Homo sapiens, UniProt Q9BWU1).
T12 construct: purchased Eurofins DiscoverX
T12 sequence (Q9BWU1 whole entry): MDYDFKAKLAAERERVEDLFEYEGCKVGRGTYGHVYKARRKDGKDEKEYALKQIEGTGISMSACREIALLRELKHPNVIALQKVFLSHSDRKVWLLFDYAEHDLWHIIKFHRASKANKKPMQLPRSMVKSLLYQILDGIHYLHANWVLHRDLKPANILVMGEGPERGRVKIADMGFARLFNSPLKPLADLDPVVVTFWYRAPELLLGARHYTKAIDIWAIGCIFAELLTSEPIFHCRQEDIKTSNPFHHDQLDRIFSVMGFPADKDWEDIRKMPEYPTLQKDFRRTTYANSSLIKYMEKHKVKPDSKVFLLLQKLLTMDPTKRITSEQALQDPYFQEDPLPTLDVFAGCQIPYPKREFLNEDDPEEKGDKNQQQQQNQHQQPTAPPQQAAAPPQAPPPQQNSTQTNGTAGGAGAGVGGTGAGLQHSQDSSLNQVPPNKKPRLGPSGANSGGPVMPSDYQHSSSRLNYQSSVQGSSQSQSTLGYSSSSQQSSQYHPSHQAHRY
Particulars: 10 μM; cited from earlier work.

The target of another data set is T13, MEK2 (Homo sapiens, UniProt P36507).
T13 construct: purchased Eurofins DiscoverX (KINOMEscan scanEDGE service)
The conditions noted are these: 10 μM; cited from earlier work.

The next data set addresses T14, PIK3CG (Homo sapiens, UniProt P48736).
T14 construct: purchased Eurofins DiscoverX (KINOMEscan scanEDGE service)
The conditions noted are these: 10 μM; cited from earlier work.

A further data set concerns the target T15, PIM2 (Homo sapiens, UniProt Q9P1W9).
T15 construct: purchased Eurofins DiscoverX (KINOMEscan scanEDGE service)
The conditions noted are these: 10 μM; cited from earlier work.

Another data set has as its target T16, ERK1 (Homo sapiens, UniProt P27361).
T16 construct: purchased Eurofins DiscoverX
Particulars: 10 μM; cited from earlier work.

T1 sequence (P28223 whole entry): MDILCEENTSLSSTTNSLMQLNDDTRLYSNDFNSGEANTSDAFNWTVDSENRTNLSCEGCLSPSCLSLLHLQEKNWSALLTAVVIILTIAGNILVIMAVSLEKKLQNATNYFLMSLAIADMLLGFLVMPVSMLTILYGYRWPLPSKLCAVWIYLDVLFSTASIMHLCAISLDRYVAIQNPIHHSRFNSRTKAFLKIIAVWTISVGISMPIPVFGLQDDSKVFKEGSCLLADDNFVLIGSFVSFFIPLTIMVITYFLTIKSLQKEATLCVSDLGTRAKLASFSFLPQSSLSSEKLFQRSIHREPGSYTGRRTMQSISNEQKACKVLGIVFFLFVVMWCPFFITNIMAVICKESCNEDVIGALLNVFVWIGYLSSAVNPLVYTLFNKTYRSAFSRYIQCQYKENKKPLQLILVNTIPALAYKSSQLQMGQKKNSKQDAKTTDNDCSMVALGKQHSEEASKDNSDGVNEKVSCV
T14 sequence (P48736 whole entry): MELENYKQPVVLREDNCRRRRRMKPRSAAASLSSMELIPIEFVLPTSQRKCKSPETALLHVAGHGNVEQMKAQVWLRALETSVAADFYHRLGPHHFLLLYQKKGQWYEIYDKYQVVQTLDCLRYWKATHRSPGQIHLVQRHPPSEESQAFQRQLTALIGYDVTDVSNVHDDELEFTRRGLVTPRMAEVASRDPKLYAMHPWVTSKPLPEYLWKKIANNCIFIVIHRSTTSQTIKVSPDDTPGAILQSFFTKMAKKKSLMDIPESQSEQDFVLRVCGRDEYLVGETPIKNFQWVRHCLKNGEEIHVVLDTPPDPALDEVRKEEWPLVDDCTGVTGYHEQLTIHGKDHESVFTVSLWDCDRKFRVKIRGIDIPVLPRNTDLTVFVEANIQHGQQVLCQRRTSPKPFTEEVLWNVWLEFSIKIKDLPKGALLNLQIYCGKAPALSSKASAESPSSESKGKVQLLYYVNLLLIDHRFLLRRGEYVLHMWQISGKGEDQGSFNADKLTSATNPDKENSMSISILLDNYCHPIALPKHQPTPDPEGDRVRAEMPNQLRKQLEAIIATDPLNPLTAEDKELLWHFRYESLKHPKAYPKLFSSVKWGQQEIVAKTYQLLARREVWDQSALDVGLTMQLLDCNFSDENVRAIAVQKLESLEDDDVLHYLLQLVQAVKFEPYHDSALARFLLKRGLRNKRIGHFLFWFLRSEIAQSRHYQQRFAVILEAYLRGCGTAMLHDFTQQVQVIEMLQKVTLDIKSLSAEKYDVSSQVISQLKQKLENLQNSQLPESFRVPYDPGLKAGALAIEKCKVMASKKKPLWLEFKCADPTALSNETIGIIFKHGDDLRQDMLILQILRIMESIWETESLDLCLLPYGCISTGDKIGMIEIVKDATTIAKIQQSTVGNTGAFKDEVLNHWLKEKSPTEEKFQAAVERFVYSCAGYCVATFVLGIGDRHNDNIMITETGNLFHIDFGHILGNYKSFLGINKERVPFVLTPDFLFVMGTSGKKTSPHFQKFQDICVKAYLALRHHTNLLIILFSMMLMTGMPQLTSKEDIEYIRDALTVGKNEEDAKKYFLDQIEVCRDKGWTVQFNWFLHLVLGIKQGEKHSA
T16 sequence (P27361 whole entry): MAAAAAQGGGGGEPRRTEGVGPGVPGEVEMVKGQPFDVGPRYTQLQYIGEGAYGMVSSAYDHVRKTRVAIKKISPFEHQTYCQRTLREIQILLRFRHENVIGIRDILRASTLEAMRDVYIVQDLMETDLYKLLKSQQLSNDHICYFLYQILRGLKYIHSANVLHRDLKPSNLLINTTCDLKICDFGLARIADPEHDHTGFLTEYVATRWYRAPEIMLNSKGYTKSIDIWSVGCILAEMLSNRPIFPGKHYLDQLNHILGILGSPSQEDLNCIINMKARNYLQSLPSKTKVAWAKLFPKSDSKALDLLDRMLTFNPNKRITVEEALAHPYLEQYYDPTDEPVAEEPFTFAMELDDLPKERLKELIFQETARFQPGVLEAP

For the compound `COc1ccc2c3ccnc(C)c3n(CCN(C)C)c2c1.O=C(O)/C=C/C(=O)O` [HTW_A_8 fumarate, 2-(7-methoxy-1-methyl-9H-pyrido[3,4-b]indol-9-yl)-N,N-dimethylethan-1-amine Fumarate Salt (2:3)], in data set [1], the “activation of 5-HT2A, IP-One agonist mode” value was “no activation” and the “antagonist activity at 5-HT2A, IP-One” value is listed as “antagonist activity”. For the same compound, the “dampening of head-twitch response produced by 5-MeO-DMT” value in the data set with C57BL/6J mice (30 mg/kg pretreatment, 10 mg/kg 5-MeO-DMT) was “sufficient to dampen the head-twitch response”. Further, the head-twitch response result in the data set on C57BL/6J mice is reported as “failed to produce a head-twitch response”. In addition, in [2], the “activation of 5-HT2C, IP-One agonist mode” value is “no activation”; the “antagonist activity at 5-HT2C, IP-One” value is given as “antagonist activity”; the “selectivity of antagonism, 5-HT2C versus 5-HT2A, IP-One” value is reported as “moderate selectivity for antagonism of 5-HT2C”. The “average total neurite length per neuron” value in [3] is recorded as “significantly increase average total neurite length per neuron”.
`COc1ccc2c(c1)N(CCN(C)C)/C(=C/C(C)=O)S2.O=C(O)/C=C/C(=O)O` [HTW_B_14 fumarate, (Z)-1-(3-(2-(dimethylamino)ethyl)-5-methoxybenzo[d]thiazol-2(3H)-ylidene)propan-2-one Fumarate Salt (1:1)]: in data set [1], the “activation of 5-HT2A, IP-One agonist mode” value was “no activation” and the “antagonist activity at 5-HT2A, IP-One” value is on record as “antagonist activity”. Moreover, in the data set with C57BL/6J mice, the head-twitch response entry is on record as “failed to produce a head-twitch response”. Also, in data set [2], the “activation of 5-HT2C, IP-One agonist mode” value is given as “no activation”; the “antagonist activity at 5-HT2C, IP-One” value is on record as “antagonist activity”; the “selectivity of antagonism, 5-HT2C versus 5-HT2A, IP-One” value is reported as “moderate selectivity for antagonism of 5-HT2C”. The “average total neurite length per neuron” value in [3] was “significantly increase average total neurite length per neuron”.
`COc1ccc2c(c1)[nH]c1c(C)nccc12` [Harmine, harmine]: the “Percent Control” value is 79% at DCAMKL1; 67% on CDK9; 90% at BRAF(V600E); 96% at AKT1; 78% at VEGFR2; 91% on LKB1. The “Percent Control” value is 93% at MAP3K4; 79% at MKNK1; 95% at SNARK; 83% at CDK11; 96% at MEK2; 49% on PIK3CG. Further, the entries for the “Percent Control” value at PIM2 and on ERK1 were 39% and 99%, respectively.
